Reference: ChEMBL document CHEMBL1155669, “Herbacic acid, a simple prototype of 5,5,5-trichloroleucine metabolites from the sponge Dysidea herbacea” (J Nat Prod, 2000)
Calls of active or inactive are those of the source.

Legend:
Format in all cases: functional, organism-based
Pichia kudriavzevii = assay: Antifungal activity against Candida krusei at <100 ug/mL by microbroth dilution method
Candida albicans [1] = assay: Antifungal activity against fluconazole-resistant Candida albicans 96-489 at <100 ug/mL by microbroth dilution method
Candida albicans [2] = assay: Antifungal activity against Candida albicans ATCC 4503 at <100 ug/mL by microbroth dilution method
Nakaseomyces glabratus = assay: Antifungal activity against Candida glabrata at <100 ug/mL by microbroth dilution method

Measured: Activity

C[C@@H](C/C=C/C(=O)N(C)[C@@H](C[C@H](C)C(Cl)(Cl)Cl)C(=O)O)C(Cl)(Cl)Cl
inactive: all assays above
